Legend:
[1] = system: B16 mouse melanoma cells; experiment: Inhibition of melanin production in melanoma cells; assay type: cell-based; conditions: 72 h, 100 μM, 3 days, read-out: Inhibitory rate of melanin production (%)
Procedure: After measuring the inhibition of melanin production by matrine and oxymatrine using B16 mouse melanoma cells (Korean Cell Line Bank), the measurement was compared with that for the inhibition of melanin production by arbutin, known as a melanin production inhibitor.
B16 mouse melanoma cells F10 (Korean Cell Line Bank) were seeded into each well of a 6-well plate (1×10^5 cells/well) in DMEM (Dulbecco's modified Eagle's media) containing 10% FBS (fetal bovine serum) and the cells were cultured to about more than 80% confluence by incubating in a CO2 incubator under conditions of 37° C. and 5.0% CO2. After cultivation, the medium was removed and samples were replaced in medium diluted at suitable concentration, followed by incubating for 3 days under conditions of 37° C. and 5.0% CO2. […] The cells removing medium were washed with PBS (phosphate buffer saline) and treated with trypsin to collect cells. Number of the collected cells was calculated using hematocytometer (Tiefe Depth Profondeur 0.100 mm, Paul Marienfeld GmbH & Co. KG, D.E), centrifuged at 5,000 to 10,000 rpm for 10 min and the supernatant was eliminated, thereby obtaining pellets. This cell pellets were dried at 60° C., 100 μl of 1M NaOH containing 10% DMSO was added to thereto, and intracellular melanin was obtained in incubator at 60° C. Then, the cell solution was measured for absorbance at 490 nm using microplate reader (Bio-Tek ELx8081U, U.S) and the amount of melanin per cell constant number was estimated.

[2] = biological target: T1, tyrosinase (Mus musculus, UniProt P11344); experiment: Inhibition of intracellular tyrosinase activity in melanoma cells; assay type: cell-based, Murine; conditions: B16-F1; 100 μM, 3 days, B-16 F1 cells; read-out: Inhibitory rate of intracellular tyrosinase activity (%)
T1 construct: This cell pellets were lysated using lysis buffer, centrifuged at 12,000 rpm for 10 min and the supernatant was collected; endogenous in cells; host or cells: B16 F1 mouse melanoma cells (Korean Cell Line Bank)
T1 sequence (P11344 19-533): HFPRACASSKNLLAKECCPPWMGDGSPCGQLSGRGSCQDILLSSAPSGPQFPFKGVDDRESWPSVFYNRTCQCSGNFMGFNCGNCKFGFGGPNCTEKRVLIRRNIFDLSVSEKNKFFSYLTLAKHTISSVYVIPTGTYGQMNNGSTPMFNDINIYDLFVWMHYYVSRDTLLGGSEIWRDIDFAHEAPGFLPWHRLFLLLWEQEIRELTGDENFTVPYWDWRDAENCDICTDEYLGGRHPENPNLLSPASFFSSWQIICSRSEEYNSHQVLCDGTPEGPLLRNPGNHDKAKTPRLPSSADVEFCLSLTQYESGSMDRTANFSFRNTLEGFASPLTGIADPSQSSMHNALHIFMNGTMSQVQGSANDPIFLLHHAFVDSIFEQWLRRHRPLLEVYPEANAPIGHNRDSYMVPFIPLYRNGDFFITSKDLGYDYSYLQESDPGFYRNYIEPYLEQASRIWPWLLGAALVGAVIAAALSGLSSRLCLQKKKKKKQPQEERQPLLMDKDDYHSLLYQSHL
Procedure: After measuring the inhibition of melanin production by matrine and oxymatrine using B16 mouse melanoma cells (Korean Cell Line Bank), the measurement was compared with that for the inhibition of intracellular tyrosinase activities by arbutin, known as a melanin production inhibitor.
Murine melanoma (B-16 F1) cells were seeded into each well of a 6-well plate (1×10^5 cells/well) in DMEM containing 10% FBS (fetal bovine serum) and the cells were cultured to about more than 80% adherence by incubating in a CO2 incubator under conditions of 37° C. and 5.0% CO2. After cultivation, the medium was removed and samples were replaced in medium diluted at suitable concentration, followed by incubating for 3 days under conditions of 37° C. and 5.0% CO2. […] The cells removing medium were washed with PBS (phosphate buffer saline) and treated with trypsin to collect cells. Number of the collected cells was calculated using hematocytometer, centrifuged at 5,000 to 10,000 rpm for 10 min and the supernatant was eliminated, thereby obtaining pellets. This cell pellets were lysated using lysis buffer, centrifuged at 12,000 rpm for 10 min and the supernatant was collected. Then, the cell solution was measured for absorbance at 492 nm using microplate reader and the activity of tyrosinase per cell constant number was estimated.

[3] = system: pigmentation of skin; experiment: Skin whitening of UV-induced pigmentation, chromameter L* value; assay type: in vivo, brown guinea pigs; conditions: 1.0 %, topical once or twice a day for 50 days, UV-pigmented abdominal skin
Procedure: A whitening effect of matrine and oxymatrine was measured using brown guinea pigs (Charles River Laboratories, Inc.), known to increase its pigmentation upon exposure to ultraviolet light, like in humans. To cause pigmentation in the brown guinea pig by ultraviolet (UV), aluminum foil with square windows of 3×3 cm^2 was adhered to hair-removed abdominal skin of brown guinea pig, and then UV light was irradiated thereon with a SE lamp (wavelength 290-320 nm, Toshiba) (total irradiation energy=1350 mJ/cm^2). After UV irradiation, the aluminum foil was removed and samples (matrine, oxymatrine or albutin) were applied as the following method. […] From the maximum, samples were applied. Applications performed once or twice a day for 50 days. […] The control with only the solvent was applied to another site. Occurrence of cumulative irritation also was examined. The degree of pigmentation of skin was determined using a chromameter (CR2002, MINOLTA, JP) to estimate the effects of applied samples. L*a*b* colorimetric system was used to classify color and L* value was used as standard in the present invention. The L* value was corrected using white board standard and was measured more than five times at one site, repeatedly. Pigmentation was evenly distributed. Skin color differences (ΔL*) between application initial point and application terminal point were obtained and then using these values, their effects of the applied samples were estimated. ΔL*=L* value at […] after application-L* value at application initial day. Equation 1 ΔL* values were obtained both at sample application site and control application site and compared, whereby the effects of the whitening substances can be estimated.

Structure (SMILES): OC[C@H]1O[C@@H](Oc2ccc(O)cc2)[C@H](O)[C@@H](O)[C@@H]1O [Albutin, arbutin, reference compound]
- inhibition at 100 µM [1]: 26%
- inhibition at 100 µM [2]: 29%
- Whitening effects (ΔL) [3]: 0.49

Reference: patent publication US20100099698A1, “Compositions for Improving Skin Conditions Comprising Matrine or Its Oxidized Derivatives” (Biospectrum Inc., priority 2007, published 2010)
